# Source: patent US7531623B2, “Hydrochloride salts of a glycopeptide phosphonate derivative” (Theravance, Inc., priority 2003, dated 2009)
# Assay: Stability of hydrochloride salts of telavancin on storage (HPLC area % of pseudoaglycone and aglycone impurities)
# Assay type: physicochemical
# Settings: for Aglycone of Cmpd 1 (HPLC area %) Initial / Pseudoaglycone of Cmpd 1 (HPLC area %) Initial: before storage at 25° C.; for Pseudoaglycone of Cmpd 1 (HPLC area %) 2 Week / Aglycone of Cmpd 1 (HPLC area %) 2 Week: stored at 25° C. for 2 weeks, glass vials; for Pseudoaglycone of Cmpd 1 (HPLC area %) 2-Week Change / Aglycone of Cmpd 1 (HPLC area %) 2-Week Change: stored at 25° C., difference between 2-week and initial value
# Procedure: In the examples described below, HPLC sample analysis was conducted using an Agilent (Palo Alto, Calif.) Series 1100 instrument with Zorbax RP-Bonus 4.6 mm×250 mm columns, supplied by Agilent, having a 5 micron pore size, packed on C14 silica. Detection was by UV absorbance at 254 nm. Mobile phase A was 2%-98%-0.1% ACN-H2O-TFA; and mobile phase B was 90%-10%-0.1% ACN-H2O-TFA. A flow rate of 1.0 mL/min was used with moble phase A containing a gradient of mobile phase B as follows: 10 to 43% B for 30 min;, 43% B for 5 min; 43 to 100% B for 5 min; 100 to 10% B for 1 min; and 10% B for 14 min.
# The effect of chloride ion content on the stability of hydrochloride salts of telavancin stored at −20° C., 5° C. and 25° C. was determined.
# Eight lots of telavancin hydrochloride salts prepared as described in Example 2 were placed in identical glass vials and stored at −20° C., 5° C. and 25° C. under otherwise identical conditions for two weeks. The changes in HPLC area % for the pseudoaglycone and aglycone impurities were used to evaluate relative stability.
# For each sample, the pH of the mixture from which it was isolated, is indicated. The column entitled, “2 Week Change” is the difference in HPLC area % between the value observed after two weeks and the initial value and is graphically illustrated in FIGS. 1 and 2.
Compound,Aglycone of Cmpd 1 (HPLC area %) Initial,Pseudoaglycone of Cmpd 1 (HPLC area %) Initial,Pseudoaglycone of Cmpd 1 (HPLC area %) 2 Week,Pseudoaglycone of Cmpd 1 (HPLC area %) 2-Week Change,Aglycone of Cmpd 1 (HPLC area %) 2 Week,Aglycone of Cmpd 1 (HPLC area %) 2-Week Change
"CCCCCCCCCCNCCN[C@@]1(C)C[C@H](O[C@H]2[C@H](Oc3c4cc5cc3Oc3ccc(cc3Cl)[C@@H](O)[C@@H](NC(=O)[C@@H](CC(C)C)NC)C(=O)N[C@@H](CC(N)=O)C(=O)N[C@H]5C(=O)N[C@H]3C(=O)N[C@H](C(=O)N[C@H](C(=O)O)c5cc(O)c(CNCP(=O)(O)O)c(O)c5-c5cc3ccc5O)[C@H](O)c3ccc(c(Cl)c3)O4)O[C@H](CO)[C@@H](O)[C@@H]2O)O[C@@H](C)[C@H]1O [4.41, telavancin]",0.06 HPLC area %,0.42 HPLC area %,0.53 HPLC area %,+0.11 HPLC area %,,
"CCCCCCCCCCNCCN[C@@]1(C)C[C@H](O[C@H]2[C@H](Oc3c4cc5cc3Oc3ccc(cc3Cl)[C@@H](O)[C@@H](NC(=O)[C@@H](CC(C)C)NC)C(=O)N[C@@H](CC(N)=O)C(=O)N[C@H]5C(=O)N[C@H]3C(=O)N[C@H](C(=O)N[C@H](C(=O)O)c5cc(O)c(CNCP(=O)(O)O)c(O)c5-c5cc3ccc5O)[C@H](O)c3ccc(c(Cl)c3)O4)O[C@H](CO)[C@@H](O)[C@@H]2O)O[C@@H](C)[C@H]1O [3.68, telavancin]",0.06 HPLC area %,0.43 HPLC area %,0.51 HPLC area %,+0.08 HPLC area %,0.08 HPLC area %,+0.02 HPLC area %
"CCCCCCCCCCNCCN[C@@]1(C)C[C@H](O[C@H]2[C@H](Oc3c4cc5cc3Oc3ccc(cc3Cl)[C@@H](O)[C@@H](NC(=O)[C@@H](CC(C)C)NC)C(=O)N[C@@H](CC(N)=O)C(=O)N[C@H]5C(=O)N[C@H]3C(=O)N[C@H](C(=O)N[C@H](C(=O)O)c5cc(O)c(CNCP(=O)(O)O)c(O)c5-c5cc3ccc5O)[C@H](O)c3ccc(c(Cl)c3)O4)O[C@H](CO)[C@@H](O)[C@@H]2O)O[C@@H](C)[C@H]1O [5.74, telavancin]",0.43 HPLC area %,0.89 HPLC area %,1.94 HPLC area %,,1.08 HPLC area %,
"CCCCCCCCCCNCCN[C@@]1(C)C[C@H](O[C@H]2[C@H](Oc3c4cc5cc3Oc3ccc(cc3Cl)[C@@H](O)[C@@H](NC(=O)[C@@H](CC(C)C)NC)C(=O)N[C@@H](CC(N)=O)C(=O)N[C@H]5C(=O)N[C@H]3C(=O)N[C@H](C(=O)N[C@H](C(=O)O)c5cc(O)c(CNCP(=O)(O)O)c(O)c5-c5cc3ccc5O)[C@H](O)c3ccc(c(Cl)c3)O4)O[C@H](CO)[C@@H](O)[C@@H]2O)O[C@@H](C)[C@H]1O [4.69, telavancin]",0.07 HPLC area %,0.45 HPLC area %,0.62 HPLC area %,+0.17 HPLC area %,0.13 HPLC area %,+0.06 HPLC area %
"CCCCCCCCCCNCCN[C@@]1(C)C[C@H](O[C@H]2[C@H](Oc3c4cc5cc3Oc3ccc(cc3Cl)[C@@H](O)[C@@H](NC(=O)[C@@H](CC(C)C)NC)C(=O)N[C@@H](CC(N)=O)C(=O)N[C@H]5C(=O)N[C@H]3C(=O)N[C@H](C(=O)N[C@H](C(=O)O)c5cc(O)c(CNCP(=O)(O)O)c(O)c5-c5cc3ccc5O)[C@H](O)c3ccc(c(Cl)c3)O4)O[C@H](CO)[C@@H](O)[C@@H]2O)O[C@@H](C)[C@H]1O [4.59, telavancin]",0.10 HPLC area %,0.52 HPLC area %,0.72 HPLC area %,+0.20 HPLC area %,0.17 HPLC area %,+0.07 HPLC area %
"CCCCCCCCCCNCCN[C@@]1(C)C[C@H](O[C@H]2[C@H](Oc3c4cc5cc3Oc3ccc(cc3Cl)[C@@H](O)[C@@H](NC(=O)[C@@H](CC(C)C)NC)C(=O)N[C@@H](CC(N)=O)C(=O)N[C@H]5C(=O)N[C@H]3C(=O)N[C@H](C(=O)N[C@H](C(=O)O)c5cc(O)c(CNCP(=O)(O)O)c(O)c5-c5cc3ccc5O)[C@H](O)c3ccc(c(Cl)c3)O4)O[C@H](CO)[C@@H](O)[C@@H]2O)O[C@@H](C)[C@H]1O [5.60, telavancin]",0.15 HPLC area %,0.48 HPLC area %,1.11 HPLC area %,,0.41 HPLC area %,
"CCCCCCCCCCNCCN[C@@]1(C)C[C@H](O[C@H]2[C@H](Oc3c4cc5cc3Oc3ccc(cc3Cl)[C@@H](O)[C@@H](NC(=O)[C@@H](CC(C)C)NC)C(=O)N[C@@H](CC(N)=O)C(=O)N[C@H]5C(=O)N[C@H]3C(=O)N[C@H](C(=O)N[C@H](C(=O)O)c5cc(O)c(CNCP(=O)(O)O)c(O)c5-c5cc3ccc5O)[C@H](O)c3ccc(c(Cl)c3)O4)O[C@H](CO)[C@@H](O)[C@@H]2O)O[C@@H](C)[C@H]1O [3.94, telavancin]",0.04 HPLC area %,0.43 HPLC area %,0.56 HPLC area %,+0.13 HPLC area %,0.09 HPLC area %,+0.05 HPLC area %
"CCCCCCCCCCNCCN[C@@]1(C)C[C@H](O[C@H]2[C@H](Oc3c4cc5cc3Oc3ccc(cc3Cl)[C@@H](O)[C@@H](NC(=O)[C@@H](CC(C)C)NC)C(=O)N[C@@H](CC(N)=O)C(=O)N[C@H]5C(=O)N[C@H]3C(=O)N[C@H](C(=O)N[C@H](C(=O)O)c5cc(O)c(CNCP(=O)(O)O)c(O)c5-c5cc3ccc5O)[C@H](O)c3ccc(c(Cl)c3)O4)O[C@H](CO)[C@@H](O)[C@@H]2O)O[C@@H](C)[C@H]1O [2.42, telavancin]",0.03 HPLC area %,0.32 HPLC area %,0.40 HPLC area %,+0.08 HPLC area %,0.05 HPLC area %,+0.02 HPLC area %
